Test results from patent US10844057B2, “Process for preparing JAK inhibitors and intermediates thereof” (priority 2018, dated 2020).
Like-named read-outs stand apart in the source and are kept apart here.

Experiments:
JAK2 = JAK2 (Homo sapiens (Human), UniProt O60674); assay: Biochemical JAK kinase assay (LanthaScreen), JAK2
Experimental: (§1) Assay 1: Biochemical JAK Kinase Assays
(§2) A panel of four LanthaScreen JAK biochemical assays (JAK1, 2, 3 and Tyk2) were carried in a common kinase reaction buffer (50 mM HEPES, pH 7.5, 0.01% Brij-35, 10 mM MgCl2, and 1 mM EGTA). Recombinant GST-tagged JAK enzymes and a GFP-tagged STAT1 peptide substrate were obtained from Life Technologies.
(§3) Serially diluted compounds were pre-incubated with each of the four JAK enzymes and the substrate in white 384-well microplates (Corning) at ambient temperature for 1 h. ATP was subsequently added to initiate the kinase reactions in 10 μL total volume, with 1% DMSO. […] Kinase reactions were allowed to proceed for 1 hour at ambient temperature before a 10 μL preparation of EDTA (10 mM final concentration) and Tb-anti-pSTAT1 (pTyr701) antibody (Life Technologies, 2 nM final concentration) in TR-FRET dilution buffer (Life Technologies) was added. The plates were allowed to incubate at ambient temperature for 1 h before being read on the EnVision reader (Perkin Elmer). Emission ratio signals (520 nm/495 nm) were recorded and utilized to calculate the percent inhibition values based on DMSO and background controls.
(§4) For dose-response analysis, percent inhibition data were plotted vs. compound concentrations, and IC50 values were determined from a 4-parameter robust fit model with the Prism software (GraphPad Software). Results were expressed as pIC50 (negative logarithm of IC50) and subsequently converted to pKi (negative logarithm of dissociation constant, Ki) using the Cheng-Prusoff equation.

[1] = tested on: IL-2 stimulated STAT5 phosphorylation in Tall-1 human T cell line; assay: Inhibition of IL-2 stimulated pSTAT5 in Tall-1 T cells; type: cell-based
Experimental: Assay 2: Inhibition of IL-2 Stimulated pSTAT5 in Tall-1 T Cells
The potency of test compounds for inhibition of interleukin-2 (IL-2) stimulated STAT5 phosphorylation was measured in the Tall-1 human T cell line (DSMZ) using AlphaLisa.
Phosphorylated STAT5 was measured via the AlphaLISA SureFire Ultra pSTAT5 (Tyr694/699) kit (PerkinElmer).
Compounds were serially diluted in DMSO and dispensed acoustically to empty wells. Assay media (phenol red-free DMEM (Life Technologies) supplemented with 10% FBS (ATCC)) was dispensed (4 μL/well) and plates shaken at 900 rpm for 10 mins. Cells were seeded at 45,000 cells/well in assay media (4 μL/well), and incubated at 37° C., 5% CO2 for 1 hour, followed by the addition of IL-2 (R&D Systems; final concentration 300 ng/mL) in pre-warmed assay media (4 μL) for 30 minutes. […] The lysate was shaken at 900 rpm for 10 minutes at room temperature (RT). Phosphorylated STAT5 was measured via the pSTAT5 AlphaLisa kit (PerkinElmer). Freshly prepared acceptor bead mixture was dispensed onto lysate (5 μL) under green filtered <100 lux light. Plates were shaken at 900 rpm for 2 mins, briefly spun down, and incubated for 2 hrs at RT in the dark. Donor beads were dispensed (5 μL) under green filtered <100 lux light. Plates were shaken at 900 rpm for 2 minutes, briefly spun down, and incubated overnight at RT in the dark. Luminescence was measured with excitation at 689 nm and emission at 570 nm using an EnVision plate reader (PerkinElmer) under green filtered <100 lux light.
To determine the inhibitory potency of test compounds in response to IL-2, the average emission intensity of beads bound to pSTAT5 was measured in a human T cell line. IC50 values were determined from analysis of the inhibition curves of signal intensity versus compound concentration. Data are expressed as pIC50 (negative decadic logarithm IC50) values (mean±standard deviation).

[2] = tested on: TSLP-evoked TARC release in human peripheral blood mononuclear cells; assay: Inhibition of TSLP-evoked TARC release in human peripheral blood mononuclear cells; type: cell-based; settings: read-out: pIC50 ± st. dev., inhibition of TSLP-evoked TARC release (converted)
Excerpt: Assay 4: Inhibition of TSLP-Evoked TARC Release in Human Peripheral Blood Mononuclear Cells
Thymic stromal lymphopoietin (TSLP) and thymus and activation-regulated chemokine (TARC) are overexpressed in asthmatic airways, and correlate with disease severity. In the lungs, TSLP may be released by bronchial epithelial cells in response to allergens and viral infections. TSLP signals through an IL-7Rα/TSLPR heterodimer found in a broad range of tissues and cell types, including epithelial cells, endothelial cells, neutrophils, macrophages, and mast cells. The binding of TSLP to its receptor induces a conformational change that activates JAK1 and JAK2 to phosphorylate various transcription factors, including STAT3 and STAT5. In immune cells, this triggers a cascade of intracellular events that result in cell proliferation, anti-apoptosis, dendritic cell migration, and production of Th2 cytokines and chemokines. In peripheral blood mononuclear cells (PBMC), TSLP has a proinflammatory effect by activating myeloid dendritic cells to attract and stimulate T cells, a process mediated by the chemoattractant TARC.
The potencies of the test compounds were measured for inhibition of TARC release.
PBMC aliquots (previously isolated from whole blood and frozen in aliquots at −80° C.) from 3 to 5 donors were thawed at 37° C. and added dropwise to 40 mL pre-warmed, sterile-filtered, complete RPMI media in 50 mL Falcon tubes. Cells were pelleted and resuspended in complete media at 2.24×10^6 cells/mL. […] Cells were allowed to rest for 1 hour at 37° C. with 5% CO2.
Compounds were received as 10 mM stock solutions in DMSO. 3.7-fold serial dilutions were performed to generate 9 concentrations of test compound in DMSO at 300× the final assay test concentration. […] 95 μL of 0.2% DMSO in complete media was added to the untreated control wells. Cells were pre-treated with compound for 1 hour at 37° C. with 5% CO2 prior to stimulation.
Immediately prior to use, an aliquot was thawed and prepared at 20× the final assay concentration in complete media. 10 μL of 20×TSLP was added to each well of PBMC, for a final assay concentration of 10 ng/mL. 10 μL of complete media was added to the unstimulated control wells. Cells were stimulated in the presence of compound for 48 hours at 37° C. with 5% CO2.
Following stimulation, the cell culture supernatants were harvested and TARC levels were detected by enzyme-linked immunosorbent assay (ELISA), using Human CCL17/TARC Quantikine ELISA Kit (R&D Systems # DDN00) according to the manufacturer's instructions.
For dose response analysis, the log [test compound (M)] was plotted versus the percent response values for each donor, and IC50 values were determined using a nonlinear regression analysis with GraphPad Prism Software using the 4-parameter sigmoidal dose-response algorithm with variable slope. Data are expressed as mean pIC50 (negative decadic logarithm IC50) values calculated from pIC50 values of individual donors and rounded to one decimal place.

Tyk2 = Tyk2 (Homo sapiens (Human), UniProt P29597); assay: Biochemical JAK kinase assay (LanthaScreen), Tyk2; settings: converted from pIC50 using Cheng-Prusoff; ATP 10 μM
Tyk2, sequence (P29597 whole entry): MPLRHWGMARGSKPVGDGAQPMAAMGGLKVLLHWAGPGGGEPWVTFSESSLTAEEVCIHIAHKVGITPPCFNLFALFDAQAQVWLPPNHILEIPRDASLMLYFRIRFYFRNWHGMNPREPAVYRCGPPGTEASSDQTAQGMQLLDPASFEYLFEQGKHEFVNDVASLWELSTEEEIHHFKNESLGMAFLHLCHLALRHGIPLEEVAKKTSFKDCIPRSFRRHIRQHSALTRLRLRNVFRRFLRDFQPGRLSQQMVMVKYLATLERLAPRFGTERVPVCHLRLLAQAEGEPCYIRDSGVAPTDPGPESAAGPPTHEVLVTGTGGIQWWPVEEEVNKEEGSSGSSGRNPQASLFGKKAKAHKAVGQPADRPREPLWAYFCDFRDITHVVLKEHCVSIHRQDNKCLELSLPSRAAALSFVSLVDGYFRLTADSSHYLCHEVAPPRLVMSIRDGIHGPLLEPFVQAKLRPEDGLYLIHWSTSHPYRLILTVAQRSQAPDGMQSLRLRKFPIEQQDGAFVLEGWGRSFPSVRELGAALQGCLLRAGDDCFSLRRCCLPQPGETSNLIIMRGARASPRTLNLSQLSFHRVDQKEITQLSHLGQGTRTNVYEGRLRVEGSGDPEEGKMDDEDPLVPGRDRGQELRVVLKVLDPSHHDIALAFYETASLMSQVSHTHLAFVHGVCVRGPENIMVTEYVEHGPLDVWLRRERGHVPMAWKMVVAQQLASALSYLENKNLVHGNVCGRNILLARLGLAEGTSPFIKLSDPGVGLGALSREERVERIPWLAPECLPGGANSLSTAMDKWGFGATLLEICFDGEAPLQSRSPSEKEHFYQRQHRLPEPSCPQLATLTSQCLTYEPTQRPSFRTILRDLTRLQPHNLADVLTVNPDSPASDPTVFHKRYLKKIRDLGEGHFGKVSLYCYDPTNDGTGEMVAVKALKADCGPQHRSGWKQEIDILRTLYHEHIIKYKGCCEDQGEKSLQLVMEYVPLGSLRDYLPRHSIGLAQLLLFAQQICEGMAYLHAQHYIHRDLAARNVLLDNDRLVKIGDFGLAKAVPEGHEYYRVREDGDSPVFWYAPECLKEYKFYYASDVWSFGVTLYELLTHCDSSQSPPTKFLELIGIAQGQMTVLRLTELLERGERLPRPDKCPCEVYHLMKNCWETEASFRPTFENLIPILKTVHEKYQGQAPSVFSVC
Experimental: as §1, §2, §3, §4

JAK2, sequence (O60674 whole entry): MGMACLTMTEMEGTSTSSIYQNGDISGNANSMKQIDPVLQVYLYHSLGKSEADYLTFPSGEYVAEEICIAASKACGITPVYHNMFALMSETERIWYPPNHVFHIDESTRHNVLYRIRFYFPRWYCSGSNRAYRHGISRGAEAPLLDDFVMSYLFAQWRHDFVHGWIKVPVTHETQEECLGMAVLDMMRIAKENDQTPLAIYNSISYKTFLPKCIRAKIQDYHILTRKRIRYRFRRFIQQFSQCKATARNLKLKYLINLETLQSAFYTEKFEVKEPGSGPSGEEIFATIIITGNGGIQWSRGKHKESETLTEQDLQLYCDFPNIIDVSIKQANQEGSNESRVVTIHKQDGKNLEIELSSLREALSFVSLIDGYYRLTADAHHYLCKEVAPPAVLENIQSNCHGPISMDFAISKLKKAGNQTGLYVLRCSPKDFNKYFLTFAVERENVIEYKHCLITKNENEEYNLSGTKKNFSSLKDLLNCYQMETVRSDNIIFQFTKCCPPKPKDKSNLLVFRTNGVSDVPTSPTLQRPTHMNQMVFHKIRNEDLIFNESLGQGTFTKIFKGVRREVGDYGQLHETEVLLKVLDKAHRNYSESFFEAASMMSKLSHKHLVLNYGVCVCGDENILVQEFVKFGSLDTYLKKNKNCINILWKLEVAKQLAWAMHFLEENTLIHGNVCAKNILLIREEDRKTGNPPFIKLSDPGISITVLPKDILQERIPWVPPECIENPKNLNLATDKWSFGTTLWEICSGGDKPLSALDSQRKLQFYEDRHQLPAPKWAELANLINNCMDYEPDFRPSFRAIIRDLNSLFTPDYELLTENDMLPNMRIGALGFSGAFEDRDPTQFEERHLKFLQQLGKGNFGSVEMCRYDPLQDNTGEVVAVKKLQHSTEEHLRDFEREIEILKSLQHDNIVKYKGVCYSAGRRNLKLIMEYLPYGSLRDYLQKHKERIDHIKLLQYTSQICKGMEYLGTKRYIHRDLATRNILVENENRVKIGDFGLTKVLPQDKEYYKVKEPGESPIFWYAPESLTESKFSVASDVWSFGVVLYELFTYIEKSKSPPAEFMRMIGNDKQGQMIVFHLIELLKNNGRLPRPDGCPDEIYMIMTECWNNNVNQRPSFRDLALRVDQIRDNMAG

| Structure (SMILES) | Ki (JAK2) [nM] | IC50 ([1]; TALL-1, read-out: Tall-1 pIC50 (converted)) [nM] | IC50 ([2]; Homo sapiens, PBMC, 48 h) [nM] | JAK2 pKi (JAK2; converted from pIC50 using Cheng-Prusoff, ATP 3 μM) | Tyk2 pKi (Tyk2) | IC50 ([1]; IL-2 300 ng/mL, pSTAT5 AlphaLisa, Tall-1 cells, read-out: Tall-1 pIC50 (converted)) [nM] | IC50 ([2]; human PBMC, 3 to 5 donors, TSLP 10 ng/mL, 48 hours, ELISA) [nM] |
| --- | --- | --- | --- | --- | --- | --- | --- |
| CCc1cc(O)ccc1-c1ccc2c(-c3nc4c([nH]3)CN(C)[C@H](C(=O)N3CCN(CCO)C[C@H]3C)C4)n[nH]c2c1 [Example 5, ((S)-2-(6-(2-ethyl-4-hydroxyphenyl)-1H-indazol-3-yl)-5-methyl-4,5,6,7-tetrahydro-3H-imidazo[4,5-c]pyridin-6-yl)((R)-4-(2-hydroxyethyl)-2-methylpiperazin-1-yl)methanone] | 0.0316 | 1.58 | 31.6 | – | – | – | – |
| CCc1cc(O)ccc1-c1ccc2c(-c3nc4c([nH]3)CN(C(C)C)[C@H](C(=O)N3CC(N(C)C)C3)C4)n[nH]c2c1 [Example 7, (S)-(3-(dimethylamino)azetidin-1-yl)(2-(6-(2-ethyl-4-hydroxyphenyl)-1H-indazol-3-yl)-5-isopropyl-4,5,6,7-tetrahydro-3H-imidazo[4,5-c]pyridin-6-yl)methan One] | – | – | – | 10.5 | 9.1 | 2.51 | 63.1 |
